Tested on: peripheral blood mononuclear cells (PBMCs)
Assay: Annexin V/PI apoptosis assay, PBMCs from healthy donors
Assay type: cell-based, human
Conditions: 40 μg/ml, 24 h
Method: PBMCs were prepared using separation via Ficoll density gradient centrifugation (Biochrom AG, Berlin, Germany) according to the protocol of the manufacturer.
After treatment adherent cells were trypsinized (as described before), and resuspended in corresponding full medium. Suspension cells or trypsinized adherent cells, supernatant and washing solution (1×PBS from washing before trypsinization) were pooled and then spun down (300 g for 3 min) washed in 2 ml and resuspended in 1000 of annexin V binding buffer and mixed with 2 μg/ml annexin V-Allophycocyanin (APC) (BD-Pharmingen, San Diego, Calif., USA) and 50 ng/ml of propidium iodide (PI; Sigma Aldrich). At least 10.000 cells were measured per sample using a Becton Dickinson FACSCalibur flow Cytometer (San Jose, Calif., USA). Percentage of Annexin V negative and PI negative cells were depicted in the figures. For the analysis of the pro-apoptotic activity of Imiquimod® in primary MM cells and non-malignant BMMCs, 5×10^5 cells BMMCs cells were treated with or without 40 μg/ml Imiquimod® for the indicated time periods. Cells were then harvested and washed twice with PBS. Detection of apoptotic cells was performed using the annexin V/PI assay according to manufacturers' instruction. Briefly, BMMCs were stained with a mixture of annexin V/FITC (Alexis Coorp., Laeufelfingen, Switzerland), propidium iodide (Sigma), anti-CD38-PE and anti-CD45-PC5 for 15 min at room temperature and immediately analyzed by flow cytometry. The percentages of viable cells (i.e. cells negative for annexin V/FITC and PI) within the MM (CD38^posCD45^low/absent) and non-MM fraction (CD38^neg/CD45^pos) were determined by flow cytometry.
Adherent cells were grown in 24-well plates to confluence and treated with 40 μg/ml Imiquimod® for 24 h. Cells were then trypsinized, suspended in full medium, stained for AnnexinV/PI and apoptosis was measured as described before. Suspension cells (250.000) were treated with 40 μg/ml Imiquimod® for 24 h, stained for Annexin/PI and apoptosis was measured as described above (Annexin V/Propidium Iodide apoptosis Assay).

Q: Which “sensitivity (apoptosis)” value (CD4+ and CD8+ cells from 12 healthy donors) does the source give for CC(C)Cn1cnc2c(N)nc3ccccc3c21 [Imiquimod, 1-(2-methylpropyl)-1H-imidazo[4,5-c]quinolin-4-amine] here?
A: nearly no sensitivity

Q: What about the “sensitivity (apoptosis)” value (CD19+ cells from 12 healthy donors) of the same molecule?
A: only mildly affected
